Measurements reported in publication PMC6277375, “Pharmacological profile of the neuropeptide S receptor: Dynamic mass redistribution studies” (Pharmacology Research & Perspectives, 2018).
Where “and” joins values, the source holds several entries; their conditions need not be identical. Equal entries are not always repeated. Marks after values point to notes of the source that are not given here. Each block holds one compound with its values, some of them ahead of it. Numbered stars: 1 amine (or outer) side, 2 acyl side, 3 side chain; on linkers, the order of the positions; unused ones are H or OH. Bridge positions count the residues as written; N and C are the ends. Square brackets hold non-standard residues; d marks the D form. Peptide text beside a SMILES is read from it. * marks the point of attachment. Leu(3R-OH,Nα-propionyl) = CCC(=O)N[C@H](C(=O)*)[C@H](O)C(C)C; X1 = CC(C)[C@@H](O[*:3])[C@H](N[*:1])C(=O)[*:2]; NMeT = CN[C@H](C(=O)O)[C@@H](C)O; dPhLac = O=C(O)[C@H](O)Cc1ccccc1; NMeA = CN[C@@H](C)C(=O)O; NMeDha = C=C(NC)C(=O)O

Experiments:
HEK293mNPSR cells = test: DMR response to NECA with and without rolipram in HEK293mNPSR cells; type: cell-based; conditions: NECA 10 μmol L^−1 + rolipram 10 μmol L^−1 (90 minute before), P < 0.05 vs NECA alone
Procedure: Confluent cells were subcultured using trypsin/EDTA and used for experiments. Cells were seeded at a density of 20 000 cells/well in 30 μL into fibronectin‐coated Enspire™‐LC 384‐wells plates and cultured for 20 hours to form a confluent monolayer. On the day of the experiment, cells were manually washed twice and maintained with assay buffer for 90 minutes before DMR experiments. DMR was monitored in real time with a temporal resolution of 22 seconds throughout the assay. Experiments were performed at 37°C, using an EnSight Multimode Plate Reader (PerkinElmer), that uses the Corning® Epic® Technology to measure the DMR signal. Agonism protocol: a 5‐minute baseline was first established, followed by adding compounds manually in a volume of 10 μL and recording compounds‐triggered DMR signal for 60 minute. Antagonism protocol: antagonists were added manually 25 minute before reading the 5‐minute baseline. After baseline establishment, NPS was injected and DMR signal was recorded for 60 minute. Antagonist properties of ligands were measured by assessing the concentration‐response curve to NPS in the absence and in presence of a fixed concentration of compound. […] Maximum picometer (pm) modifications (peak measured at 60 minute time point) were used to determine agonist response after baseline normalization. […]

murine NPSR [1] = target: T1, murine NPSR (Mus musculus, UniProt Q8BZP8); test: Dynamic mass redistribution (DMR) assay in HEK293mNPSR cells; type: cell-based; conditions: for DMR response, HEK293mNPSR pm ± SEM: peak at 60 minute, mean ± SEM, duplicate
T1 construct: expressed in transfected cells
T1 sequence (Q8BZP8 1-371): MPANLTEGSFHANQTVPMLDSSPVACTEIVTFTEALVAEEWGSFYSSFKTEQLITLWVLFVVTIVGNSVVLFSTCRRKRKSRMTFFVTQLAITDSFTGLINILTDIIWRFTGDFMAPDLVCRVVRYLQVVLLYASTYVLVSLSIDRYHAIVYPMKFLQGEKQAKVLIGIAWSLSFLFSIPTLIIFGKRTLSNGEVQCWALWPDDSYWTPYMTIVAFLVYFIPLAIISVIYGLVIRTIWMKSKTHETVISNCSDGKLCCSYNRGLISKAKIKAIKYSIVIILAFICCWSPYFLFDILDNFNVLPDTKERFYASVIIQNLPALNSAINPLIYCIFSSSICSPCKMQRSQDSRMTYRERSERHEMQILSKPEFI
Procedure: (§1) HEK293 cells stably expressing the murine NPSR receptor (HEK293mNPSR) were described previously.3 Wild‐type HEK293 cells were used as a control. Cells were maintained in Dulbecco's Medium (DMEM) supplemented with 10% fetal bovine serum, 100 U/mL penicillin, 100 μg/mL streptomycin and, 2 mmol L^−1 L‐glutamine. The medium was complemented with 100 mg/L hygromycin for HEK293mNPSR. Cells were cultured at 37°C in 5% CO2 humidified air.
Confluent cells were subcultured using trypsin/EDTA and used for experiments. […] On the day of the experiment, cells were manually washed twice and maintained with assay buffer for 90 minutes before DMR experiments. DMR was monitored in real time with a temporal resolution of 22 seconds throughout the assay. Experiments were performed at 37°C, using an EnSight Multimode Plate Reader (PerkinElmer), that uses the Corning® Epic® Technology to measure the DMR signal. Agonism protocol: a 5‐minute baseline was first established, followed by adding compounds manually in a volume of 10 μL and recording compounds‐triggered DMR signal for 60 minute. Antagonism protocol: antagonists were added manually 25 minute before reading the 5‐minute baseline. After baseline establishment, NPS was injected and DMR signal was recorded for 60 minute. Antagonist properties of ligands were measured by assessing the concentration‐response curve to NPS in the absence and in presence of a fixed concentration of compound. FR900359 was added 60 minute before NPS, rolipram was incubated for 90 minute before NPS, while PTX was added 24 hours before NPS. Maximum picometer (pm) modifications (peak measured at 60 minute time point) were used to determine agonist response after baseline normalization.
All data were analyzed using Graph Pad Prism 6.0 (La Jolla, CA, USA). Concentration‐response curves were fitted using the four parameters log logistic equation. Data are expressed as mean ± SEM of n experiments performed in duplicate and were analyzed using one‐ or two‐way analysis of variance (ANOVA) followed by Dunnett's or Tukey's test for multiple comparisons wherever appropriate. […] Antagonists potencies were assayed at single concentrations against the concentration‐response curve to NPS and their pA2 was derived using the following equation: pA2 = log(CR − 1) − log[A], where CR is the ratio between agonist potency (EC50) in the presence and in absence of antagonist and [A] is the molar concentration of antagonist.

wild-type HEK293 cells = test: DMR assay in wild-type HEK293 cells (control); type: cell-based, Human; conditions: ligand 10 μmol L^−1, 37°C, peak at 60 minute after baseline normalization, mean ± SEM, duplicate
Procedure: as §1
Confluent cells were subcultured using trypsin/EDTA and used for experiments. Cells were seeded at a density of 20 000 cells/well in 30 μL into fibronectin‐coated Enspire™‐LC 384‐wells plates and cultured for 20 hours to form a confluent monolayer. On the day of the experiment, cells were manually washed twice and maintained with assay buffer for 90 minutes before DMR experiments. DMR was monitored in real time with a temporal resolution of 22 seconds throughout the assay. Experiments were performed at 37°C, using an EnSight Multimode Plate Reader (PerkinElmer), that uses the Corning® Epic® Technology to measure the DMR signal. Agonism protocol: a 5‐minute baseline was first established, followed by adding compounds manually in a volume of 10 μL and recording compounds‐triggered DMR signal for 60 minute. Antagonism protocol: antagonists were added manually 25 minute before reading the 5‐minute baseline. After baseline establishment, NPS was injected and DMR signal was recorded for 60 minute. Antagonist properties of ligands were measured by assessing the concentration‐response curve to NPS in the absence and in presence of a fixed concentration of compound. FR900359 was added 60 minute before NPS, rolipram was incubated for 90 minute before NPS, while PTX was added 24 hours before NPS. Maximum picometer (pm) modifications (peak measured at 60 minute time point) were used to determine agonist response after baseline normalization.
All data were analyzed using Graph Pad Prism 6.0 (La Jolla, CA, USA). Concentration‐response curves were fitted using the four parameters log logistic equation. Data are expressed as mean ± SEM of n experiments performed in duplicate and were analyzed using one‐ or two‐way analysis of variance (ANOVA) followed by Dunnett's or Tukey's test for multiple comparisons wherever appropriate. Agonist potency was expressed as pEC50, which is the negative logarithm to base 10 of the agonist molar concentration that produces 50% of the maximal possible effect of that agonist. Antagonists potencies were assayed at single concentrations against the concentration‐response curve to NPS and their pA2 was derived using the following equation: pA2 = log(CR − 1) − log[A], where CR is the ratio between agonist potency (EC50) in the presence and in absence of antagonist and [A] is the molar concentration of antagonist.

NPSR = conditions: cited from earlier work
Excerpt: The pharmacological profile of NPSR in the DMR assay has been investigated using several NPSR ligands acting as full and partial agonists and pure antagonists in the calcium mobilization assay. The DMR effects of these compounds solely derive from their capability to activate NPSR since we selected their concentration range based on lack of DMR signal in wild‐type cells. Overall, the DMR pharmacological profile of NPSR looks similar but not identical to that reported in literature using the calcium mobilization assay. The first aspect that deserves attention is related to the efficacy of NPSR ... || Regarding NPSR agonists, another point that must be addressed is the pharmacological behavior of PWT1‐NPS. […] The high in vitro potency of PWT1‐NPS was associated with a high in vivo potency and long‐lasting duration of action.31 These features seem to be common to PWT derivatives of other neuropeptides including nociceptin/orphanin FQ, opioids and tachykinins (reviewed in 40). In DMR experiments, we were not able to fully investigate the pharmacologic ...

murine NPSR [2] = target: T1, murine NPSR; test: Calcium mobilization assay in HEK293mNPSR cells; type: cell-based; conditions: FR900359 injected 24 minute before NPS, Fluo-4 AM, FlexStation II, 37°C
Procedure: Cells were seeded at a density of 50 000 cells/well in 100 μL into poly‐D‐lysine coated 96‐well black, clear‐bottom plates. The following day, cells were incubated with medium supplemented with 2.5 mmol L^−1 probenecid, 3 μmol L^−1 of the calcium sensitive fluorescent dye Fluo‐4 AM and 0.01% pluronic acid, for 30 minute at 37°C. Following this, the loading solution was aspirated and 100 μL of HBSS supplemented with 20 mmol L^−1 HEPES, 2.5 mmol L^−1 probenecid and 500 μmol L^−1 Brilliant Black were added. Cell culture and drug plates were placed into a fluorimetric imaging plate reader (FlexStation II, Molecular Devices, Sunnyvale, CA) and fluorescent changes were measured. On‐line additions were carried out in a volume of 50 μL/well. To facilitate drug diffusion into the wells, the present studies were performed at 37°C and three cycles of mixing (25 μL from each well moved up and down three times) were performed immediately after FR900359 injection to the wells. FR900359 was injected into the wells 24 minute before adding NPS.
All data were analyzed using Graph Pad Prism 6.0 (La Jolla, CA, USA). […] Data are expressed as mean ± SEM of n experiments performed in duplicate and were analyzed using one‐ or two‐way analysis of variance (ANOVA) followed by Dunnett's or Tukey's test for multiple comparisons wherever appropriate. […]

Compound: CCNC(=O)[C@H]1O[C@@H](n2cnc3c(N)ncnc32)[C@H](O)[C@@H]1O [NECA, (2S,3S,4R,5R)‐5‐(6‐aminopurin‐9‐yl)‐N‐ethyl‐3,4‐dihydroxyoxolane‐2‐carboxamide, reference compound]
DMR response of NECA in presence of rolipram (HEK293mNPSR cells): 464 ± 58 pm
DMR response, HEK293mNPSR pm ± SEM (murine NPSR [1]; ligand 10 μmol L^−1, 37°C): 229 ± 18 pm and 229 ± 18 ^a pm
DMR response, HEK293 pm ± SEM (wild-type HEK293 cells): 312 ± 28 ^a pm

DMR response, HEK293mNPSR pm ± SEM (murine NPSR [1]; ligand 1 μmol L^−1, 37°C): 387 ± 43 pm and 387 ± 43 ^a pm
DMR response as % of NPS maximal effect (murine NPSR [1]; ligand 1 μmol L^−1 alone): 58%
Compound: [D‐Cys(^tBu)^5]NPS
behaviour in the calcium mobilization assay (NPSR): pure NPSR antagonist

Compound: C=C1C(=O)N[C@@H](C)C(=O)N(C)[C@@H](C)C(=O)N[C@@H]([C@H](OC(=O)[C@@H](NC(=O)CC)[C@H](O)C(C)C)C(C)C)C(=O)N(C)[C@@H]([C@@H](C)OC)C(=O)O[C@H](C(C)C)[C@H](NC(C)=O)C(=O)O[C@H](Cc2ccccc2)C(=O)N1C [FR900359, [(1R)‐1‐[(3S,6S,9S,12S,18R,21S,22R)‐21‐acetamido‐18‐benzyl‐3‐[(1R)‐1‐methoxyethyl]‐4,9,10,12,16‐pentamethyl‐15‐methylidene‐2,5,8,11,14,17,20‐heptaoxo‐22‐propan‐2‐yl‐1,19‐dioxa‐4,7,10,13,16‐pentazacyclodocos‐6‐yl]‐2‐methylpropyl] (2S,3R)‐3‐hydroxy‐4‐methyl‐2‐(propanoylamino)pentanoate, reference compound] (Ac-[X1][dPhLac][NMeDha]A[NMeA][X1](Leu(3R-OH,Nα-propionyl))[NMeT](Me); ester 1-C)
Effect of inhibitor on NPS stimulated calcium mobilization (murine NPSR [2]): completely abolished
Effect of inhibitor on NPS-evoked DMR response (murine NPSR [1]; FR900359 1 μmol L^−1 (60 minute before NPS), PTX 100 ng mL^−1 (24 hours before), rolipram 10 μmol L^−1 (90 minute before)): strongly, but not completely, reduced NPS effects
